Like-named read-outs stand apart in the source and are kept apart here.
Key:
WT STING [1] = biological target: T1, WT STING (Homo sapiens, UniProt Q86WV6, H232R); experiment: Digitonin assay using 293T wtSTING-FL reporter cells; type: cell-based; conditions: 293T wtSTING-FL cells; 30 minutes in Digitonin buffer, then 5 hours; ISRE firefly luciferase reporter
From the text: (§1) Two complementary oligonucleotides of the sequence […] […] […] […] […] The oligonucleotides were mixed in equal molar amounts, hybridized, and cleaved by restriction endonucleases HindIII (cat. #. R0104S, NEB, Ipswich, USA) and BglII (cat. # R0144S, NEB, Ipswich, USA). Ultimately, they were ligated into plasmid pGL4.27 (cat. # E6651, Promega, Madison, USA) linearized with the same enzymes. As result the sequence with four ISRE sites was placed upstream of the minimum promoter of firefly luciferase reporter gene.
(§2) After 5 minutes incubation at room temperature (RT), 250 µL of the mixture was added dropwise to the cells in one well. Cells were incubated 36 hours at 37° C. with 5% CO2, and then detached with 0.05% Trypsin and 0.22 g/L EDTA (both cat. # L0941, Biowest, Riverside, USA).
(§3) Transfected cells were seeded onto poly-D-lysine coated six well plates at density 50,000 cells per 1 cm^2 in DMEM medium with high glucose containing 10% heat inactivated FBS, 30 µg/mL blasticidin (cat. # ant-bl-05, InvivoGen, San Diego, USA), 0.06 mg/ml Penicillin G and 0.1 mg/ml Streptomycin Sulfate (both cat. #. L0018, Biowest, Riverside, USA). The medium was replenished every 3 - 4 days until visible colonies of cells resistant to blasticidin were formed.
(§4) Blasticidin resistant cells stably expressing WT STING were further transfected with […] plasmid following the same procedure as described above. […] Homogeneous culture of stably double transfected cells was prepared by limiting dilution of cells in 96 well plates and wells with cells were selected that originated from a single cell.
The medium was removed next day and three fold serial dilutions of compounds in Digitonin buffer containing 50 mmol.l^-1 HEPES (cat. # H3375, Sigma Aldrich, Czech Republic) pH 7.0, 100 mmol.1^-1 KCl, 3 mmol.l^-1 MgCl2, 0.1 mmol.l^-1 DTT (cat. # D0632, Sigma Aldrich, Czech Republic), 85 mmol.1^-1 Sucrose (cat. # S7903, Sigma Aldrich, Czech Republic), 0.2% BSA (cat. # A2153, Sigma Aldrich, Czech Republic), 1 mmol.l^-1 ATP (cat. # A1852, Sigma Aldrich, Czech Republic), 0.1 mmol.1^-1 GTP (cat. # G8877, Sigma Aldrich, Czech Republic), and 10 µg/mL Digitonin A (cat. # D141, Sigma Aldrich, Czech Republic) were added to the cells. The buffer was removed after 30 minutes incubation at 37° C. with 5% CO2, the cells were washed once with 100 µl of cultivation medium, and 100 µl of medium was added to each well. The plates with cells were incubated for 5 hours at 37° C. with 5% CO2, 50µl of the medium was removed and 30 µl of ONE-Glo^Tm Luciferase Assay System reagent (cat. # E6120, Promega, Madison, USA) was added to each well. Luminescence was read on Synergy H1 (Biotek, Winooski, USA).
Target sequence in this assay (Q86WV6 whole entry H232R): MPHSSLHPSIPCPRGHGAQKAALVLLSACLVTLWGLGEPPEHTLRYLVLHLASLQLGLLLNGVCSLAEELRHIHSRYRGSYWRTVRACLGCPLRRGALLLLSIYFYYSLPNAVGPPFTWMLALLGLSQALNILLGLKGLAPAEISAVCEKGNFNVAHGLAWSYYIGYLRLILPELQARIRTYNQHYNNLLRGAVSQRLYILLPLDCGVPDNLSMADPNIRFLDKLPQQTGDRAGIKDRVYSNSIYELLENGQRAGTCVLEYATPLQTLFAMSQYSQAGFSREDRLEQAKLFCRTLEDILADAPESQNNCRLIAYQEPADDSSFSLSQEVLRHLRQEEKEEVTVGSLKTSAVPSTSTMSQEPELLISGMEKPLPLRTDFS

AQ STING (G230A-R293Q) = biological target: T2, AQ STING (G230A-R293Q) (Homo sapiens, UniProt Q86WV6, G230A/H232R/R293Q); experiment: Differential Scanning Fluorimetry with AQ STING; type: binding; conditions: thermal shift vs apoprotein, 150 µM CDN, truncated human AQ STING 0.1 mg/ml; for ΔTm at 150 µM: read-out: DSF ΔTm AQ STING
T2 construct: 8xHis (N, cleaved yes); SUMO (N, cleaved yes); made in house; host or cells: E. coli Rosetta-gami B (DE3)
From the text: (§5) Purified PCR products were cleaved with restriction enzymes BamHI (cat. # R0136S, NEB, Ipswich, USA) and NotI (cat. # R0189S, NEB, Ipswich, USA) and cloned into the pSUMO vector linearized with the identical enzymes.
(§6) Bacterial pellets were re-suspended in ice-cold lysis buffer containing 50 mmol.1^-1 TrisCl (cat. # T1503, Sigma Aldrich, Czech Republic) pH 8.0, 300 mmol.1^-1 NaCl, 3 mmol.1^-1 β-mercaptoethanol (cat. # M6250, Sigma Aldrich, Czech Republic), 10% glycerol (cat. # G5516, Sigma Aldrich, Czech Republic) and 20 mmol.1^-1 imidazole (cat. # I5513, Sigma Aldrich, Czech Republic) using Dounce homogenizer. DNase I (cat. # D5025, Sigma Aldrich, Czech Republic) and RNase A (cat. # R6513, Sigma Aldrich, Czech Republic) were added (final concentration 50 µg/ml) together with MgCl2 (final concentration 5 mmol.l^-1) to the homogenate and bacteria were lysed using French Press G-M™ High-Pressure Cell Press Homogenizer (1500 psi, 3 cycles). […] The resin was poured into a chromatography column, washed with 50 ml buffer A (50 mmol.1^-1 TrisCl (pH 8.0), 800 mmol.1^-1 NaCl, 3 mmol.1^-1 β-mercaptol; 10% glycerol; 20 mmol.1^-1 imidazole) and 8-His-SUMO tagged STING proteins were eluted with 15 ml buffer A containing 300 mmol.1^-1 imidazole. […] Proteins were concentrated with Amicon® Ultra-15 10 K device (cat. # UFC901008, Merck Millipore, Billerica, USA) and flash frozen in liquid N2.
(§7) 20 µL solutions of the reaction mixtures were pipetted in triplicates into 96 well optical reaction plates and thermal denaturation of samples were performed on real time PCR cycler (LightCycler® 480 Instrument II - Roche, Basel, Switzerland). The first derivative of the thermal denaturation curves was performed to calculate denaturing temperatures of STING - CDN complexes and STING apoproteins. The thermal shift for each CDN was calculated by subtracting the average denaturing temperature of STING apoprotein from the average denaturing temperature of STING CDN complex.

WT STING [2] = biological target: T1, WT STING; experiment: Differential Scanning Fluorimetry with WT STING; type: binding; parameters: 8xHis (N, cleaved yes); SUMO (N, cleaved yes); made in house; host or cells: E. coli Rosetta-gami B (DE3); conditions: thermal shift vs apoprotein, 150 µM CDN, truncated human WT STING 0.1 mg/ml; for ΔTm at 150 µM: read-out: DSF ΔTm WT STING
From the text: as §5, §6, §7
Target sequence in this assay (Q86WV6 140-343 H232R): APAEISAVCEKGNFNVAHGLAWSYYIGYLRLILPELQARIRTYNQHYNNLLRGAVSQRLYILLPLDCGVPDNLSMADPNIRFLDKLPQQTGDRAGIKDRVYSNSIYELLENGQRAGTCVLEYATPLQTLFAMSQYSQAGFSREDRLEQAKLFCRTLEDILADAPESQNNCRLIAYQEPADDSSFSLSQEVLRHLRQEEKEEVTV

WT STING [3] = biological target: T1, WT STING; experiment: 293T WT STING standard reporter assay; type: cell-based; conditions: 293T wtSTING-FL cells; 7 hours with compound, no digitonin; ISRE firefly luciferase reporter
From the text: as §1, §2, §3, §4
Target sequence in this assay (Q86WV6 whole entry H232R): as the sequence (Q86WV6 whole entry H232R) above
The medium was removed next day and three-fold serial dilutions of compounds in 100 µl medium were added to the cells. The plates with cells were incubated for 7 hours at 37° C. with 5% CO2. After 50 µl of the medium was removed, 30 µl of ONE-Glo^Tm Luciferase Assay System reagent (cat. # E6120, Promega, Madison, USA) was added to each well and luminescence was read on Synergy H1 (Biotek, Winooski, USA).

[4] = test system: peripheral blood mononuclear cell (PBMC); experiment: Peripheral blood mononuclear cell assay; type: cell-based; conditions: 1h with compound, washed, 15 hour incubation
Protocol: Selected compounds were tested in an in vitro peripheral blood mononuclear cell (PBMC) assay. Freshly isolated PBMCs were seeded into U-shaped shaped 96-well plates at desity 500,000 cells per well in 50 µl of RPMI 1640 medium supplemented with 10% heat inactivated FBS. Serially dilluted tested compounds were added to wells in 50 µl of cultivation medium and cell were incubated with compounds for 1h at 37° C. with 5% CO2. Plates with cells were then spun 500 g for 5 minutes and medium was removed. Cells were washed twice with the cell culture medium by the use of centrifugation and gently resuspended in 100 µl medium without compounds. After 15 hour incubation at 37° C. with 5% CO2, the cell culture medium was collected and the levels of interferon-alpha (INF-α), interferon-gamma (INF-γ) and tumor necrosis factor-alpha (TNF-α) were determined with ProcartaPlex Assays (ThermoFisher, Waltham, USA) and MAGPIX System (Merck KGaA, Darmstadt, Germany).

T2 sequence (Q86WV6 140-343 G230A/H232R/R293Q): as the sequence (Q86WV6 140-343 H232R) above, with G91A, R154Q counted along it

Nc1nc(N)c2ncn([C@@H]3O[C@@H]4COP(=O)(O)O[C@H]5[C@@H](O)[C@H](n6cnc7c(=O)[nH]c(N)nc76)O[C@@H]5/C=C\P(=O)(O)O[C@H]4[C@H]3O)c2n1 (stereo in doubt) [Compound 69, (1S,6R,8R,9R,10S,15R,17R,18R)-17-(2-amino-6-oxo-6,9-dihydro-1H-purin-9-yl)-8-(2,6-diamino-9H-purin-9-yl)-3,9,12,18-tetrahydroxy-2,4,7,11,16-pentaoxa-3λ^5,12λ^5-diphosphatricyclo[13.3.0.0^6,^10]octadec-13-ene-3,12-dione]
EC50 (WT STING [1]): 32800 nM | ΔTm at 150 µM (AQ STING (G230A-R293Q)): 3.5 °C | ΔTm at 150 µM (WT STING [2]): 1.2 °C

CSc1ncnc2c1ncn2[C@@H]1O[C@@H]2COP(=O)(O)O[C@H]3[C@@H](O)[C@H](n4cnc5c(=O)[nH]c(N)nc54)O[C@@H]3/C=C\P(=O)(O)O[C@H]2[C@H]1O (stereo in doubt) [Compound 70, (1S,6R,8R,9R,10S,15R,17R,18R)-17-(2-amino-6-oxo-6,9-dihydro-1H-purin-9-yl)-3,9,12,18-tetrahydroxy-8-[6-(methylsulfanyl)-9H-purin-9-yl]-2,4,7,1 1,16-pentaoxa-3λ^5,12λ^5-diphosphatricyclo[13.3.0.0^6,^10]octadec-13-ene-3,12-dione]
EC50 (WT STING [1]): 16100 nM | ΔTm at 150 µM (AQ STING (G230A-R293Q)): 1.1 °C | ΔTm at 150 µM (WT STING [2]): 0.5 °C

Nc1ncnc2c1ncn2[C@@H]1O[C@@H]2COP(=O)(O)O[C@H]3[C@@H](O)[C@H](n4cnc5c(N)ncnc54)O[C@@H]3COP(=O)(O)O[C@H]2[C@H]1O [3′3′c-di-AMP, 3′3′-c-di-AMP, reference compound]
EC50 (WT STING [1]): 300 nM | DSF ΔTm AQ STING (AQ STING (G230A-R293Q)): 9.3 °C | DSF ΔTm WT STING (WT STING [2]): 2.6 °C

Nc1nc2c(ncn2[C@@H]2O[C@@H]3COP(=O)(O)O[C@H]4[C@@H](O)[C@H](n5cnc6c(=O)[nH]c(N)nc65)O[C@@H]4COP(=O)(O)O[C@H]3[C@H]2O)c(=O)[nH]1 [3′3′c-di-GMP, 3′3′-c-di-GMP, reference compound]
EC50 (WT STING [1]): 5800 nM | DSF ΔTm AQ STING (AQ STING (G230A-R293Q)): 7.7 °C | DSF ΔTm WT STING (WT STING [2]): 2.6 °C

Nc1nc2c(ncn2[C@@H]2O[C@@H]3COP(=O)(O)O[C@H]4C[C@H](n5cnc6c(N)ncnc65)O[C@@H]4/C=C/P(=O)(O)O[C@H]3[C@H]2F)c(=O)[nH]1 [Compound 59, (1S,6R,8R,9R,10R,13E,15R,17R)-8-(2-amino-6-oxo-6,9-dihydro-1H-purin-9-yl)-17-(6-amino-9H-purin-9-yl)-9-fluoro-3,12-dihydroxy-2,4,7,11,16-pentaoxa-3λ^5, 12λ^5-diphosphatricyclo[13.3.0.0^6,^10]octadec-13-ene-3,12-dione]
EC50 (WT STING [1]): 700 nM

Nc1ncnc2c1ncn2[C@@H]1O[C@@H]2/C=C/P(=O)(O)O[C@H]3C[C@H](n4cnc5c(N)ncnc54)O[C@@H]3COP(=O)(O)O[C@H]2[C@H]1F [Compound 60, (1R,6R,8R,10S,13E,15R,17R,18R)-8,17-bis(6-amino-9H-purin-9-yl)-18-fluoro-3,12-dihydroxy-2,4,7,11,16-pentaoxa-3λ^5,12λ^5-diphosphatricyclo[13.3.0.0^6,^10]octadec-13-ene-3,12-dione]
EC50 (WT STING [1]): 280 nM | EC50 (WT STING [3]): 71800 nM | EC50 ([4]; PBMC, IFN-α level in medium, read-out: PBMC EC50 IFN-α): > 500000 nM | EC50 ([4]; PBMC, IFN-γ level in medium, read-out: PBMC EC50 IFN-γ): 164000 nM | EC50 ([4]; PBMC, TNF-α level in medium, read-out: PBMC EC50 TNF-α): 100000 nM

Nc1ncnc2c1ncn2[C@@H]1O[C@@H]2COP(=O)(O)O[C@H]3C[C@H](n4cnc5c(N)ncnc54)O[C@@H]3/C=C/P(=O)(O)O[C@H]2[C@H]1F [Compound 61, (1S,6R,8R,9R,10R,13E,15R,17R)-8,17-bis(6-amino-9H-purin-9-yl)-9-fluoro-3,12-dihydroxy-2,4,7,11,16-pentaoxa-3λ^5,12λ^5-diphosphatricyclo[13.3.0.0^6,10]octadec-13-ene-3,12-dione]
EC50 (WT STING [1]): 750 nM | EC50 (WT STING [3]): > 200000 nM

{[(1R,6R,8R,9R,10R,13E,15R,17R,18R)-8,17-bis(6-amino-9H-purin-9-yl)-9,18-difluoro-3,12-dioxo-3-({[(propan-2-yloxy)carbonyl]oxy}methoxy)-2,4,7,11,16-pentaoxa-3λ^5,12λ^5- diphosphatricyclo[13.3.0.0^6,^10]octadec-13-en-12-yl]oxy}methyl propan-2-yl carbonate [Compound 81c]
EC50 (WT STING [3]): 122 nM | EC50 ([4]; IFN-α level in medium, read-out: PBMC EC50 IFN-α): 600 nM | EC50 ([4]; IFN-γ level in medium, read-out: PBMC EC50 IFN-γ): 1300 nM | EC50 ([4]; TNF-α level in medium, read-out: PBMC EC50 TNF-α): 250 nM

Source: patent US20230303613A1, “3′3′ CYCLIC DINUCLEOTIDES WITH AN ALKENYLENE” (Institute of Organic Chemistry and Biochemistry AS CR, v.v.i, priority 2020, published 2023)
